Source: EP2599767A1, “Phenylbutyl-derivatives” (Lunamed AG, priority 2011, dated 2013)
Where two headings read alike, the source gives them in different places.

Assays:
Jurkat cells [1] = assay: Apoptosis assay (active Caspase 3/7 by FAM-DEVD-FMK probe, flow cytometry); type: cell-based; settings: Jurkat cell line; for EC50: Homo sapiens, pro-apoptotic effects; for EC50 / pro-apoptotic effect (in words): 48 hours of treatment; for caspase dependence: effects in presence of zVAD-FMK (in words): 100µM zVAD-FMK, Example 4 at 5mM; for pro-apoptotic effect (in words): Example 3: 30mM and 10mM
Protocol: This study was performed using the following cell line on the two types of experiments performed: • Experiment 1: Study of the effects of compounds of Examples 3 and 4 according to the invention on apoptosis and cell proliferation: • o Jurkat: acute T cell leukemia • Experiment 2: Study of the caspase dependency of cell death induced by the compounds of Example 3 and 4 according to the invention. • o Jurkat: acute T cell leukemia Apoptosis was quantified at the single cell level by titrating active Caspase 3/7. This assay is based on the strong affinity of the FAM-DEVD-FMK peptide (carboxyfluorescein-labeled fluoromethyl ketone) for the catalytic site of the protease. When added to a cell culture, the FAM-DEVD-FMK probe enters cells and covalently binds to the large subunit of the active caspase 3/7. The bound labelled peptide remains within the cytosolic compartment, while the unbound peptides are drained off from the cell. The probe emits a green fluorescent signal which allows a direct measure of the amount of active caspase 3/7 present in the cell. All the conditions were performed in triplicate. Detection of cellular events was performed in triplicate in 96 well-plates after 48 hours of treatment by automated flow cytometry. Non-linear regressions and IC50 calculation were performed with GraphPad Prism 4.01 software. Briefly the time course of the experiments was the following: • o day 1 : seeding of cells in 96 well-plates. • o day 2 : treatment with compounds. • o day 4 : analysis at 48h-treatment. […] Effects of the two compounds of Examples 3 and 4 on apoptosis and cell proliferation in the Jurkat cell line: • The cells were labeled for subsequent cell proliferation measurements and plated in 96 well culture plates in standard culture conditions. • 24 hours after plating, the cells were treated with the two compounds of Examples 3 and 4. Experiment 2: […] zVad-FMK is a cell-permeant pan caspase inhibitor that irreversibly binds to the catalytic site of caspase proteases and can inhibit induction of apoptosis.

[2] = Solubility in solvents (qualitative); type: physicochemical; settings: solvents as named in the value
Jurkat cells [3] = assay: Cell proliferation assay (dilution of fluorescent membrane marker, flow cytometry); type: cell-based; settings: for IC50: Homo sapiens, Jurkat, 48 h; for anti-proliferative effect (in words): Jurkat cell line, 48 hours of treatment, without zVAD, Example 3: 30mM and 10mM
Protocol: This study was performed using the following cell line on the two types of experiments performed: • Experiment 1: Study of the effects of compounds of Examples 3 and 4 according to the invention on apoptosis and cell proliferation: • o Jurkat: acute T cell leukemia • Experiment 2: Study of the caspase dependency of cell death induced by the compounds of Example 3 and 4 according to the invention. • o Jurkat: acute T cell leukemia This assay is based on the dilution rate of a fluorescent membrane marker which is a direct function of cell division. This probe is non toxic and allows the multiplexed detection of other parameters on the same cell population. The assay is performed by loading the cells with a fluorescent phospholipid analogue before plating. […] Subsequently, Flow cytometry analyzes the dilution rate of the fluorescent probe at the single cell level which is a direct readout of the number of cell divisions. All the conditions were performed in triplicate. Detection of cellular events was performed in triplicate in 96 well-plates after 48 hours of treatment by automated flow cytometry. Non-linear regressions and IC50 calculation were performed with GraphPad Prism 4.01 software. Briefly the time course of the experiments was the following: • o day 1 : seeding of cells in 96 well-plates. • o day 2 : treatment with compounds. • o day 4 : analysis at 48h-treatment. […] Effects of the two compounds of Examples 3 and 4 on apoptosis and cell proliferation in the Jurkat cell line: • The cells were labeled for subsequent cell proliferation measurements and plated in 96 well culture plates in standard culture conditions. • 24 hours after plating, the cells were treated with the two compounds of Examples 3 and 4. Experiment 2: […]

[4] = +100µM zVAD, read-out: EC50 (+100µM zVAD)
[5] = without zVAD, read-out: EC50 (without zVAD)

EC50 (Jurkat cells [1]; [4]) [mM] | EC50 (Jurkat cells [1]; [5]) [mM] | IC50 (Jurkat cells [3]; read-out: IC50 (+100µM zVAD)) [µM] | IC50 (Jurkat cells [3]; read-out: IC50 (without zVAD)) [µM] | SMILES | caspase dependence: effects in presence of zVAD-FMK (in words) (Jurkat cells [1]) | pro-apoptotic effect (in words) (Jurkat cells [1]; without zVAD) | solubility (in words) [2] | anti-proliferative effect (in words) (Jurkat cells [3])
13 | 6.4 | 4300 | 3200 | CC(NC(=O)CCCc1ccccc1)C(=O)O (centres unmarked) [Example 3, 2-(4-Phenyl-butyrylamino)-propionic acid] | sensitive to 100µM zVAD-fmk | pro-apoptotic | soluble in alcohols (ethanol and methanol) as well as in acetic acid | anti-proliferative effects
10 | 3.2 | 2200 | 2600 | O=C(O)CCCc1ccccc1 [Example 4-PB, 4-Phenylbutyric acid, reference compound] | well inhibited by zVAD-FMK | able to elicit apoptosis |  | inhibit proliferation
 |  |  | 9000 | C[C@H](NC(=O)CCCc1ccccc1)C(=O)OCCOC(=O)[C@@H](C)NC(=O)CCCc1ccccc1 [Example 4] | no apoptosis was observed | able to induce apoptosis only at the highest concentration tested (5mM) | soluble in dichloromethane, ethyl acetate and acetonitrile | concentration dependent anti-proliferative effect

SMILES | EC50 (Jurkat cells [1]; [4]) [mM] | EC50 (Jurkat cells [1]; [5]) [mM] | IC50 (Jurkat cells [3]; read-out: IC50 (+100µM zVAD)) [µM] | IC50 (Jurkat cells [3]; read-out: IC50 (without zVAD)) [µM] | caspase dependence: effects in presence of zVAD-FMK (in words) (Jurkat cells [1]) | pro-apoptotic effect (in words) (Jurkat cells [1]; without zVAD) | solubility (in words) [2] | anti-proliferative effect (in words) (Jurkat cells [3])
CN[C@@H]1C[C@H]2O[C@@](C)([C@@H]1OC)n1c3ccccc3c3c4c(c5c6ccccc6n2c5c31)C(=O)NC4 [STS, Staurosporine, reference compound] |  | 2.3e-05 | 0.011 | 0.012 |  |  |  | 
